Laboratory results: the SangsterLogP compilation

Assay: from Savola, J.; Ruskoaho, H.; Salonen, J.; Puurunen, J.; Karjalainen, A.; Kurkela, K.; Karki, N. (1988). Cardiovascular and sedative alpha-adrenoceptor effects of detomidine-like arylalkylimidazoles and …
Settings: pH 7.4

Work on `Cc1cccc(C)c1-c1c[nH]cn1` yielded a logD of 2.38.

Work on `Cc1cc(C)cc(Cc2c[nH]cn2)c1` yielded a logD of 2.34.

Work on `Cc1ccc(Cc2c[nH]cn2)c(C)c1` yielded a logD of 2.52.

`Cc1cccc(C)c1CCCc1c[nH]cn1` gave a logD of 2.87.

`Cc1ccc(Cc2c[nH]cn2)cc1C` showed a logD of 2.54.

With `Cc1ccc(C)c(Cc2c[nH]cn2)c1` the logD was 2.54.

For `Cc1cccc(Cc2c[nH]cn2)c1C`, the logD was 2.5.

For `Cc1cccc(C)c1CCn1ccnc1`, the logD was 2.51.

Compound `Cc1ccccc1Cc1c[nH]cn1` has a logD of 2.13.

In the case of `Cc1cccc(C)c1CCc1c[nH]cn1`, the logD is reported as 2.73.

`Cc1cccc(C)c1Cc1cnc[nH]1` gave a logD of 2.54.

Compound `Cc1cccc(C)c1CCCCc1c[nH]cn1` has a logD of 3.3.

`Cc1cccc(C)c1CCc1ncc[nH]1` showed a logD of 2.2.

`Cc1cccc(C)c1Cc1ccccn1` showed a logD of 3.48.

`Cc1cccc(Cc2c[nH]cn2)c1` showed a logD of 2.21.

Compound `Cc1cccc(C)c1/C=C/c1c[nH]cn1` has a logD of 3.35.
